{"source": "patent US20070244162A1", "about": "(priority 2005, published 2007)", "data": [{"test_system": "Phytophthora infestans", "test": "microbe, parasite or virus in culture", "assay_type": "cell-based", "conditions": "read-out: Fungicidal activity IC50, P. infestans", "units": {"IC50": "nM"}, "values": [{"smiles": "OC(c1cccnc1)c1c(-c2ccc(Cl)cc2)csc1-c1ccc(Cl)s1", "note": "(stereo not shown) [Compound 4, 4-(4-Chlorophenyl)-2-(5-chloro-2-thienyl)-3-[(3-pyridyl)hydroxymethyl]-thiophene]", "IC50": "> 100000"}, {"smiles": "OC(c1cccnc1)c1c(-c2ccc(F)cc2F)csc1-c1ccc(Cl)cc1", "note": "(stereo not shown) [Compound 6, 2-(4-Chlorophenyl)-4-(2,4-difluorophenyl)-3-[(3-pyridyl)hydroxymethyl]-thiophene]", "IC50": "> 100000"}, {"smiles": "OC(c1cccnc1)c1c(-c2ccc(Cl)cc2)csc1-c1ccc(Cl)cc1", "note": "(stereo not shown) [Compound 8, 2,4-Bis-(4-chlorophenyl)-3-[(3-pyridyl)hydroxymethyl]-thiophene]", "IC50": "> 100000"}, {"smiles": "OC(c1cccnc1)c1c(-c2ccc(Cl)cc2)csc1-c1cccs1", "note": "(stereo not shown) [Compound 9, 4-(4-Chlorophenyl)-3-[(3-pyridyl)hydroxymethyl]-2-(2-thienyl)thiophene]", "IC50": "> 100000"}, {"smiles": "OC(c1cccnc1)c1c(-c2cccs2)csc1-c1ccc(Cl)cc1", "note": "(stereo not shown) [Compound 12, 2-(4-Chlorophenyl)-3-[(3-pyridyl)hydroxymethyl]-4-(2-thienyl)thiophene]", "IC50": "> 100000"}, {"smiles": "Cc1ccc(-c2csc(-c3ccc(F)cc3F)c2C(O)c2cccnc2)s1", "note": "(stereo not shown) [Compound 14, 2-(2,4-Difluorophenyl)-4-(5-methyl-2-thienyl)-3-[(3-pyridyl)hydroxymethyl]-thiophene]", "IC50": "> 100000"}]}, {"test_system": "Monilinia fructicola", "test": "microbe, parasite or virus in culture", "assay_type": "cell-based", "conditions": "read-out: Fungicidal activity IC50, M. fructicola", "units": {"IC50": "nM"}, "values": [{"smiles": "OC(c1cccnc1)c1c(-c2ccc(Cl)cc2)csc1-c1ccc(Cl)s1", "note": "(stereo not shown) [Compound 4, 4-(4-Chlorophenyl)-2-(5-chloro-2-thienyl)-3-[(3-pyridyl)hydroxymethyl]-thiophene]", "IC50": "< 100"}, {"smiles": "OC(c1cccnc1)c1c(-c2ccc(F)cc2F)csc1-c1ccc(Cl)cc1", "note": "(stereo not shown) [Compound 6, 2-(4-Chlorophenyl)-4-(2,4-difluorophenyl)-3-[(3-pyridyl)hydroxymethyl]-thiophene]", "IC50": "< 100"}, {"smiles": "OC(c1cccnc1)c1c(-c2ccc(Cl)cc2)csc1-c1cccs1", "note": "(stereo not shown) [Compound 9, 4-(4-Chlorophenyl)-3-[(3-pyridyl)hydroxymethyl]-2-(2-thienyl)thiophene]", "IC50": "< 100"}, {"smiles": "OC(c1cccnc1)c1c(-c2cccs2)csc1-c1ccc(Cl)cc1", "note": "(stereo not shown) [Compound 12, 2-(4-Chlorophenyl)-3-[(3-pyridyl)hydroxymethyl]-4-(2-thienyl)thiophene]", "IC50": "< 100"}, {"smiles": "Cc1ccc(-c2csc(-c3ccc(F)cc3F)c2C(O)c2cccnc2)s1", "note": "(stereo not shown) [Compound 14, 2-(2,4-Difluorophenyl)-4-(5-methyl-2-thienyl)-3-[(3-pyridyl)hydroxymethyl]-thiophene]", "IC50": "< 100"}]}, {"test_system": "Stagonospora nodorum", "test": "microbe, parasite or virus in culture", "assay_type": "cell-based", "conditions": "not given", "values": [{"smiles": "OC(c1cccnc1)c1c(-c2ccc(F)cc2F)csc1-c1ccc(Cl)cc1", "note": "(stereo not shown) [Compound 6, 2-(4-Chlorophenyl)-4-(2,4-difluorophenyl)-3-[(3-pyridyl)hydroxymethyl]-thiophene]", "Fungicidal activity IC50, S. nodorum": "B (c)"}, {"smiles": "OC(c1cccnc1)c1c(-c2ccc(Cl)cc2)csc1-c1ccc(Cl)cc1", "note": "(stereo not shown) [Compound 8, 2,4-Bis-(4-chlorophenyl)-3-[(3-pyridyl)hydroxymethyl]-thiophene]", "Fungicidal activity IC50, S. nodorum": "B (d)"}, {"smiles": "OC(c1cccnc1)c1c(-c2ccc(Cl)cc2)csc1-c1cccs1", "note": "(stereo not shown) [Compound 9, 4-(4-Chlorophenyl)-3-[(3-pyridyl)hydroxymethyl]-2-(2-thienyl)thiophene]", "Fungicidal activity IC50, S. nodorum": "A (d)"}, {"smiles": "OC(c1cccnc1)c1c(-c2cccs2)csc1-c1ccc(Cl)cc1", "note": "(stereo not shown) [Compound 12, 2-(4-Chlorophenyl)-3-[(3-pyridyl)hydroxymethyl]-4-(2-thienyl)thiophene]", "Fungicidal activity IC50, S. nodorum": "A (d)"}, {"smiles": "Cc1ccc(-c2csc(-c3ccc(F)cc3F)c2C(O)c2cccnc2)s1", "note": "(stereo not shown) [Compound 14, 2-(2,4-Difluorophenyl)-4-(5-methyl-2-thienyl)-3-[(3-pyridyl)hydroxymethyl]-thiophene]", "Fungicidal activity IC50, S. nodorum": "A (b)"}]}, {"test_system": "Stagonospora nodorum", "test": "microbe, parasite or virus in culture", "assay_type": "cell-based", "conditions": "Parastagonospora nodorum, read-out: Fungicidal activity IC50, S. nodorum", "units": {"IC50": "nM"}, "values": [{"smiles": "OC(c1cccnc1)c1c(-c2ccc(Cl)cc2)csc1-c1ccc(Cl)s1", "note": "(stereo not shown) [Compound 4, 4-(4-Chlorophenyl)-2-(5-chloro-2-thienyl)-3-[(3-pyridyl)hydroxymethyl]-thiophene]", "IC50": "110 to 1000"}]}, {"test_system": "Botrytis cinerea", "test": "not given", "assay_type": "cell-based", "conditions": "not given", "values": [{"smiles": "OC(c1cccnc1)c1c(-c2ccc(Cl)cc2)csc1-c1ccc(Cl)s1", "note": "(stereo not shown) [Compound 4, 4-(4-Chlorophenyl)-2-(5-chloro-2-thienyl)-3-[(3-pyridyl)hydroxymethyl]-thiophene]", "Fungicidal activity IC50, B. cinerea": "B (c)"}, {"smiles": "OC(c1cccnc1)c1c(-c2ccc(F)cc2F)csc1-c1ccc(Cl)cc1", "note": "(stereo not shown) [Compound 6, 2-(4-Chlorophenyl)-4-(2,4-difluorophenyl)-3-[(3-pyridyl)hydroxymethyl]-thiophene]", "Fungicidal activity IC50, B. cinerea": "B (d)"}, {"smiles": "OC(c1cccnc1)c1c(-c2ccc(Cl)cc2)csc1-c1cccs1", "note": "(stereo not shown) [Compound 9, 4-(4-Chlorophenyl)-3-[(3-pyridyl)hydroxymethyl]-2-(2-thienyl)thiophene]", "Fungicidal activity IC50, B. cinerea": "B (d)"}, {"smiles": "OC(c1cccnc1)c1c(-c2cccs2)csc1-c1ccc(Cl)cc1", "note": "(stereo not shown) [Compound 12, 2-(4-Chlorophenyl)-3-[(3-pyridyl)hydroxymethyl]-4-(2-thienyl)thiophene]", "Fungicidal activity IC50, B. cinerea": "A (d)"}, {"smiles": "Cc1ccc(-c2csc(-c3ccc(F)cc3F)c2C(O)c2cccnc2)s1", "note": "(stereo not shown) [Compound 14, 2-(2,4-Difluorophenyl)-4-(5-methyl-2-thienyl)-3-[(3-pyridyl)hydroxymethyl]-thiophene]", "Fungicidal activity IC50, B. cinerea": "B (d)"}]}, {"test_system": "Septoria tritici", "test": "microbe, parasite or virus in culture", "assay_type": "cell-based", "conditions": "not given", "values": [{"smiles": "OC(c1cccnc1)c1c(-c2ccc(Cl)cc2)csc1-c1ccc(Cl)s1", "note": "(stereo not shown) [Compound 4, 4-(4-Chlorophenyl)-2-(5-chloro-2-thienyl)-3-[(3-pyridyl)hydroxymethyl]-thiophene]", "Fungicidal activity IC50, S. tritici": "A (d)"}, {"smiles": "OC(c1cccnc1)c1c(-c2ccc(F)cc2F)csc1-c1ccc(Cl)cc1", "note": "(stereo not shown) [Compound 6, 2-(4-Chlorophenyl)-4-(2,4-difluorophenyl)-3-[(3-pyridyl)hydroxymethyl]-thiophene]", "Fungicidal activity IC50, S. tritici": "A (b)"}, {"smiles": "OC(c1cccnc1)c1c(-c2ccc(Cl)cc2)csc1-c1ccc(Cl)cc1", "note": "(stereo not shown) [Compound 8, 2,4-Bis-(4-chlorophenyl)-3-[(3-pyridyl)hydroxymethyl]-thiophene]", "Fungicidal activity IC50, S. tritici": "A (d)"}, {"smiles": "OC(c1cccnc1)c1c(-c2ccc(Cl)cc2)csc1-c1cccs1", "note": "(stereo not shown) [Compound 9, 4-(4-Chlorophenyl)-3-[(3-pyridyl)hydroxymethyl]-2-(2-thienyl)thiophene]", "Fungicidal activity IC50, S. tritici": "A (c)"}]}, {"test_system": "Septoria tritici", "test": "microbe, parasite or virus in culture", "assay_type": "cell-based", "conditions": "Zymoseptoria tritici, read-out: Fungicidal activity IC50, S. tritici", "units": {"IC50": "nM"}, "values": [{"smiles": "OC(c1cccnc1)c1c(-c2cccs2)csc1-c1ccc(Cl)cc1", "note": "(stereo not shown) [Compound 12, 2-(4-Chlorophenyl)-3-[(3-pyridyl)hydroxymethyl]-4-(2-thienyl)thiophene]", "IC50": "< 100"}, {"smiles": "Cc1ccc(-c2csc(-c3ccc(F)cc3F)c2C(O)c2cccnc2)s1", "note": "(stereo not shown) [Compound 14, 2-(2,4-Difluorophenyl)-4-(5-methyl-2-thienyl)-3-[(3-pyridyl)hydroxymethyl]-thiophene]", "IC50": "< 100"}]}]}
